# In patent US7815905B2, “Methods of increasing insulin sensitivity or decreasing insulin secretion by administering corticotropin releasing factor receptor-2 inhibitors” (Research Development Foundation, priority 2006, dated 2010):
# “Also recorded” adds a separate entry of the source.
# Legend:
# wild type mice = assay: Glucose tolerance test (GTT) in wild type mice; assay type: in vivo, mouse; settings: fasted male wild type mice; 30 μg/kg IP 20 min prior to glucose 2 g/kg
# Protocol: FIG. 1a-f: Metabolic phenotype of Ucn 2 null mice. […] The ability of the Ucn 2 null mice and wild type littermates to handle a glucose load was assessed using a standard glucose tolerance test (see example 1). Fasted male mice were injected intraperitoneally (IP) with glucose (2 g/kg body weight) and blood glucose levels were measured before and at 15, 30, 60, 90 and 120 min following glucose injection. […] Fasted male Ucn 2 null mice were injected IP with saline or with 0.1 μg/kg body weight Ucn 2, 20 min prior to glucose injection (2 g/kg body weight) and blood glucose levels were measured before and at 15, 30, 60 and 90 min following glucose injection. […] Fasted male wild type mice were injected IP with saline or with astressin2B (30 μg/kg body weight), 20 min prior to glucose injection (2 g/kg body weight), and blood glucose levels were measured before and at 15, 30, 60 and 90 min following glucose injection. (d) The enhanced glucose tolerance in the Ucn 2 null mice is not due to increased insulin secretion. Fasted male mice were injected with glucose (3 g/kg body weight, IP) and blood samples were collected at 2, 5, 15 and 30 min following glucose injection and insulin was measured by radioimmunoassay. […] Fasted male mice were injected with insulin (0.75 U/kg body weight, IP) and blood glucose levels were measured before and at 15, 30, 60 and 90 min following insulin injection. […]
# isolated rat islets [1] = assay: Insulin secretion from isolated rat islets; assay type: cell-based; settings: exendin-4 10 nM + 8.4 mM glucose; listed as Ast2-B
# isolated rat islets [2] = assay: Insulin secretion from isolated rat islets; assay type: cell-based; settings: isolated rat islets; for insulin secretion induced by 16.8 mM glucose: pretreated
# Protocol: FIG. 4a-b: The effect of CRFR2 antagonist on insulin secretion in isolated rat islets. (a) The effect of astressin2B (Ast2-B) on insulin secretion in response to glucose in isolated rat islets. […] The asterisk indicates a statistically significant difference between results from the control versus Ast2-B. (b) Isolated rat isles were pre-treated with anti-Ucn 3 IgG or control IgG followed by addition of indicated concentration of glucose. Y-axis indicates insulin secretion from the treated islets. The double asterisks indicate a statistically significant difference between the indicated treatments. […]
# To assess the effect of CRFR2 antagonism on islet cell function secretion of insulin from isolated rat islets was studied. […] Thus, activation of CRFR2 by endogenous ligands is involved in insulin secretion induced by high levels of glucose.
# In order to determine the role of Ucn 3 in glucose induced insulin secretion, isolated rat islets were pretreated with an anti-Ucn 3 IgG prior to glucose treatment.
# CRFR2 = target: T1, CRFR2 (Homo sapiens, UniProt Q13324); settings: Rivier et al. 2002; cited from earlier work
# T1 sequence (Q13324 1-411): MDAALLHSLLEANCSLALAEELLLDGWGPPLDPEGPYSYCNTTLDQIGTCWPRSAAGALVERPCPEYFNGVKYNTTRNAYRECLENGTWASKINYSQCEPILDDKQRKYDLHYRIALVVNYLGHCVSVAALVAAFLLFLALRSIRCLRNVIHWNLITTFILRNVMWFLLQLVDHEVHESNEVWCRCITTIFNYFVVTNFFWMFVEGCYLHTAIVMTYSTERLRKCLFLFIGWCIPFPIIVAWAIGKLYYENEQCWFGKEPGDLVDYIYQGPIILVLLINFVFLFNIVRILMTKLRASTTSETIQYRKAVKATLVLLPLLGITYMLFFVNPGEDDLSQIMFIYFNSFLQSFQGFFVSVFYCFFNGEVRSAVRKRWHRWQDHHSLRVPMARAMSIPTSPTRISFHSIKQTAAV
# male rats = assay: Glucose induced insulin release in vivo in male rats; set-up: species or system rat
# Protocol: FIG. 9a-c: The effects of CRFR2 signaling on insulin secretion. […] Plasma insulin (b) and glucose (c) levels in male rats treated with vehicle or Ast2-B (0.09-9 nmol/kg). *, P<0.05 vs. vehicle.
# In order to determine whether blocking of CRFR2 function also modulates glucose induced insulin release in vivo, various doses of Ast2-B (0.09-9 nmol/kg) or vehicle were injected intravenously into male rats through a jugular vein cannula 20 min before injection of a glucose (2.8 mmol/kg) bolus.
# [3] = Rivier et al., 2003; cited from earlier work
substance,measurement,setting,value
"astressin2B: CRFR2 selective antagonist; modified sauvagine polypeptide (SEQ ID NO:10), Rivier et al., 2002",glucose tolerance test profile,wild type mice,has CRFR2 antagonist activity; also recorded: mirrors that of Ucn 2 null mice; also recorded: mimics the Ucn 2 mutant mice glucose tolerance test profile
same,Exendin-4 stimulated insulin release,isolated rat islets [1],greatly attenuated; also recorded: the effect was attenuated
same,insulin secretion induced by 16.8 mM glucose,isolated rat islets [2],has CRFR2 antagonist activity
same,insulin secretion induced by 16.8 mM glucose,isolated rat islets [2]; listed as Ast2-B,significantly attenuated; also recorded: attenuated by Ast2-B in a dose-dependent manner
same,insulin secretion induced by 16.8 mM glucose,isolated rat islets [2]; listed as astressin-2B,attenuates 16.8 mM glucose-induced insulin secretion in a dose-dependent manner
same,insulin release induced by 2.8 mM glucose,isolated rat islets [2]; 2.8 mM glucose,did not affect
same,insulin secretion induced by 8.4 mM glucose,isolated rat islets [2],did not significantly modify
same,insulin secretion induced by 8.4 mM glucose,isolated rat islets [2]; listed as Ast2-B,did not affect
same,insulin release induced by 10 mM glucose,isolated rat islets [2]; 10 mM glucose,did not affect
same,time of administration needed for CRFR2 antagonist activity,CRFR2,active when administered concurrently with the CRFR2 agonist
same,"glucose-induced insulin secretion, highest dose compared to 0.9 nmol/kg",male rats; 9 nmol/kg intravenously,slightly less effective
same,plasma glucose levels,male rats; 0.09-9 nmol/kg intravenously 20 min before glucose 2.8 mmol/kg bolus,mirrored the results of insulin
same,glucose-induced insulin secretion (plasma insulin),"male rats; 0.09-9 nmol/kg intravenously 20 min before glucose 2.8 mmol/kg bolus, listed as Ast2-B",attenuated glucose-induced insulin secretion in a dose dependent manner; also recorded: attenuates glucose induced insulin secretion
same,crossing of the blood brain barrier,[3],unlikely to cross the blood brain barrier
